Experimental findings from patent US9868727B2, “Factor XIa inhibitors” (Merck Sharp & Dohme Corp., priority 2014, dated 2018) are described below.

The target in this experiment is T1, purified human Factor XIa (Homo sapiens, UniProt P03951).
T1 construct: purified human Factor XIa; purchased Sekisui Diagnostics
Kind of experiment: Factor XIa Assay. The class given is biochemical. The conditions noted are these: fluorogenic substrate Z-Gly-Pro-Arg-AFC 100 μM, 40 pM enzyme, pH 7.4, read-out: F11a IC50. As for the experimental part:
The effectiveness of a compound of the present invention as an inhibitor of Coagulation Factor XIa can be determined using a relevant purified serine protease, and an appropriate synthetic substrate. The rate of hydrolysis of the chromogenic or fluorogenic substrate by the relevant serine protease was measured both in the absence and presence of compounds of the present invention. Assays were conducted at room temperature or at 37° C. […] A decrease in the rate of fluorescence change in the presence of inhibitor is indicative of enzyme inhibition. Such methods are known to one skilled in the art. […]
Factor XIa determinations were made in 50 mM HEPES buffer at pH 7.4 containing 150 mM NaCl, 5 mM CaCl2, and 0.1% PEG 8000 (polyethylene glycol; JT Baker or Fisher Scientific). Determinations were made using purified human Factor XIa at a final concentration of 40 pM (Sekisui Diagnostics) and he synthetic substrate, Z-Gly-Pro-Arg-AFC, TFA salt (Sigma #C0980) at a concentration of 100 μM.
Activity assays were performed by diluting a stock solution of substrate at least tenfold to a final concentration ≦0.1 Km into a solution containing enzyme or enzyme equilibrated with inhibitor. Times required to achieve equilibration between enzyme and inhibitor were determined in control experiments. Initial velocities of product formation in the absence (VO) or presence of inhibitor (Vi) were measured. Assuming competitive inhibition, and that unity is negligible compared Km/[S], [I]/e, and [I]/e (where [S], [I], and e respectively represent the total concentrations, of substrate, inhibitor and enzyme), the equilibrium constant (Ki) for dissociation of the inhibitor from the enzyme can be obtained from the dependence of VO/Vi on [I] shown in the following equation.

Molecules are shown by their SMILES.

T1 sequence (P03951 388-625 limits assumed): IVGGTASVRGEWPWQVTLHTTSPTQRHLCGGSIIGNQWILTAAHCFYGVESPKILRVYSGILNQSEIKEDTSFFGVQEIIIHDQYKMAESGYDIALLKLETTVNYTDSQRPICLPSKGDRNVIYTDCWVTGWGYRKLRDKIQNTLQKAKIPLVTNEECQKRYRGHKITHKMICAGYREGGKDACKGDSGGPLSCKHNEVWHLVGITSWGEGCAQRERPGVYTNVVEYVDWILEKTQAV
T1 sequence (P03951 19-387 partner limits assumed): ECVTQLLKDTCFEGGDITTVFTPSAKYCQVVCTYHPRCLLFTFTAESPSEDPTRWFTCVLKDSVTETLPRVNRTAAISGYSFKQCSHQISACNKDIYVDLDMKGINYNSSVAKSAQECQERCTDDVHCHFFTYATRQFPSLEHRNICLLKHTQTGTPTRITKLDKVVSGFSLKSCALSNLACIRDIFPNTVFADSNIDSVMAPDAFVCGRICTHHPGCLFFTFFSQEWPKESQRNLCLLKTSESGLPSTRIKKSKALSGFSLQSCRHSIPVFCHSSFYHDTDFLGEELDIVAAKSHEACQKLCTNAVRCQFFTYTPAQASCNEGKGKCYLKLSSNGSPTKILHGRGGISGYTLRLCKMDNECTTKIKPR

For `CC(C)OC(=O)Nc1ccc(-c2cnc(C(CC3CC3)c3ccc(-c4cc(Cl)ccc4-n4cnnn4)c[n+]3[O-])[nH]2)cc1` (racemic) [Example 46], the IC50 came out at 2.91 nM. Regarding `O=C(O)c1ccc(-c2cnc(C(CC3CC3)c3ccc(-c4cc(Cl)ccc4-n4cnnn4)c[n+]3[O-])[nH]2)cc1` (single isomer, unassigned) [Example 55], the concentration for half-maximal inhibition (IC50) was 593 nM. On to `N#Cc1ccc(-c2cnc(C(CC3CC3)c3ccc(-c4cc(Cl)ccc4-n4cnnn4)c[n+]3[O-])[nH]2)cc1` (single isomer, unassigned) [Example 30, 4-[2-(1-{5-[5-chloro-2-(1H-tetrazol-1-yl)phenyl]-1-oxidopyridin-2-yl}-2-cyclopropylethyl)-1H-imidazol-5-yl]benzonitrile], for which the IC50 came to 266 nM.

`COC(=O)Nc1ccc(-c2cnc(C(CC3CC3)c3ccc(-c4cc(Cl)ccc4-c4cocn4)c[n+]3[O-])[nH]2)cc1` (racemic) [Example 71]: the half-inhibitory concentration (IC50) amounted to 834 nM.

As for `COC(=O)c1scc(-c2cnc(C(CC3CC3)c3ccc(-c4cc(Cl)ccc4-n4cnnn4)c[n+]3[O-])[nH]2)c1F` (single isomer, unassigned) [Example 62, Methyl 4-[2-(1-{5-[5-chloro-2-(1H-tetrazol-1-yl)phenyl]-1-oxidopyridin-2-yl}-2-cyclopropylethyl)-1H-imidazol-5-yl]-3-fluorothiophene-2-carboxylate], the IC50 worked out at 1000 nM. Under `NC(=O)c1scc(-c2cnc(C(CC3CC3)c3ccc(-c4cc(Cl)ccc4-n4cnnn4)c[n+]3[O-])[nH]2)c1F` (single isomer, unassigned) [Example 59, 2-(1-(5-(5-carbamoyl-4-fluorothiophen-3-yl)-1H-imidazol-2-yl)-2-cyclopropylethyl)-5-(5-chloro-2-(1H-tetrazol-1-yl)phenyl)pyridine 1-oxide] stands 110 nM; under `COC(=O)Nc1ccc(-c2cnc(C(CC3CC3)c3ccc(-c4cc(Cl)ccc4-n4cc(C(F)F)nn4)c[n+]3[O-])[nH]2)cc1` (racemic) [Example 74], 11 nM; under `COC(=O)Nc1ccc(-c2cnc(C(CC3CC3)c3ccc(-c4cc(Cl)ccc4-n4cnnn4)c[n+]3[O-])[nH]2)c(F)c1` (single isomer, unassigned) [Example 37], 74.8 nM. In the case of `[O-][n+]1cc(-c2cc(Cl)ccc2-n2cnnn2)ccc1C(CC1CC1)c1ncc(-c2cccc(F)c2)[nH]1` (single isomer, unassigned) [Example 31], the half-inhibitory concentration (IC50) amounted to 1000 nM.

For `COC(=O)Nc1ccc(-c2[nH]c(C(CC3CC3)c3ccc(-c4cc(Cl)ccc4-n4cnnn4)c[n+]3[O-])nc2Cl)cc1` (single isomer, unassigned) [Example 78, 5-(5-chloro-2-(1H-tetrazol-1-yl)phenyl)-2-(1-(4-chloro-5-(4-((methoxycarbonyl)amino)phenyl)-1H-imidazol-2-yl)-2-cyclopropylethyl)pyridine 1-oxide], the IC50 was determined as 54.4 nM. `N#Cc1cccc(-c2cnc(C(CC3CC3)c3ccc(-c4cc(Cl)ccc4-n4cnnn4)c[n+]3[O-])[nH]2)c1` (single isomer, unassigned) [Example 35]: the concentration for half-maximal inhibition (IC50) turned out to be 1000 nM. Consider `COC(=O)Nc1ccc(-c2cnc(C(CC3CC3)c3ccc(-c4cc(Cl)ccc4-c4cnco4)c[n+]3[O-])[nH]2)cc1` (single isomer, unassigned) [Example 70], for which the IC50 was 1000 nM. With `COC(=O)Nc1ccc(-c2cnc(C(CC3CC3)c3ccc(-c4cc(Cl)ccc4-n4cncn4)c[n+]3[O-])[nH]2)cc1` (racemic) [Example 68], the IC50 turned out to be 631 nM.

Regarding `COC(=O)Nc1ccc(-c2cnc(C(CC3CC3)c3ccc(-c4cc(Cl)ccc4-n4cnnc4)c[n+]3[O-])[nH]2)cc1` (racemic) [Example 66, 5-(5-chloro-2-(4H-1,2,4-triazol-4-yl)phenyl)-2-(2-cyclopropyl-1-(5-(4-((methoxycarbonyl)amino)phenyl)-1H-imidazol-2-yl)ethyl)pyridine 1-oxide], the concentration for half-maximal inhibition (IC50) stood at 12.9 nM. As to `COC(=O)Nc1ccc(-c2cnc(C(CC3CC3)c3ccc(-c4cc(Cl)ccc4-n4ccnn4)c[n+]3[O-])[nH]2)cc1` (racemic) [Example 65, 5-(5-Chloro-2-(1H-1,2,3-triazol-1-yl)phenyl)-2-(2-cyclopropyl-1-(5-(4-((methoxycarbonyl)amino)phenyl)-1H-imidazol-2-yl)ethyl)pyridine 1-oxide], the IC50 was 11.9 nM.

In the case of `COC(=O)Nc1ccc(-c2c[nH]c(C(Cc3ccc(F)cc3)c3ccc(-c4cc(Cl)ccc4OC(F)F)c[n+]3[O-])n2)cc1` (racemic) [Example 15], the IC50 was determined as 34.2 nM. Turning to `COC(=O)Nc1ccc(-c2c[nH]c(C(Cc3ccc(F)cc3)c3ccc(-c4cc(Cl)ccc4C(F)F)c[n+]3[O-])n2)cc1` (single isomer, unassigned) [Example 12, 5-(5-chloro-2-(difluoromethyl)phenyl)-2-(2-(4-fluorophenyl)-1-(4-(4-((methoxycarbonyl)amino)phenyl)-1H-imidazol-2-yl)ethyl)pyridine 1-oxide], the IC50 was found to be 341 nM. In the case of `[O-][n+]1cc(-c2cc(Cl)ccc2-n2cnnn2)ccc1C(Cc1ccc(F)cc1)c1nc(-c2ccc(Cl)cc2)c[nH]1` (single isomer, unassigned) [Example 21], the IC50 stood at 128 nM. As to `O=C(O)c1cccc(-c2c[nH]c(C(CC3CC3)c3ccc(-c4cc(Cl)ccc4-n4cnnn4)c[n+]3[O-])n2)c1` (single isomer, unassigned) [Example 54], the half-maximal inhibitory concentration (IC50) was determined as 71 nM.

As to `COC(=O)Nc1ccc(-c2cnc(C(CC3CC3)c3ccc(-c4cc(Cl)ccc4-n4cccn4)c[n+]3[O-])[nH]2)cc1` (racemic) [Example 73], the IC50 worked out at 1000 nM. In the case of `Nc1ccc(-c2cnc(C(CC3CC3)c3ccc(-c4cc(Cl)ccc4-n4cnnn4)c[n+]3[O-])[nH]2)c(Cl)n1` (single isomer, unassigned) [Example 48, 6-chloro-5-[2-(1-{5-[5-chloro-2-(1H-tetrazol-1-yl)phenyl]-1-oxidopyridin-2-yl}-2-cyclopropylethyl)-1H-imidazol-5-yl]pyridin-2-amine], the half-maximal inhibitory concentration (IC50) worked out at 72 nM. For `COC(=O)Nc1ccc(-c2cnc([C@@H](Cc3ccccc3)c3ccc(-c4cc(Cl)ccc4-c4cnco4)c[n+]3[O-])[nH]2)cc1` [Example 26], the concentration for half-maximal inhibition (IC50) was found to be 271 nM. Under `COC(=O)Nc1ccc(-c2cnc(C(CC3CC3)c3ccc(-c4cc(Cl)ccc4-n4cc(C(F)F)cn4)c[n+]3[O-])[nH]2)cc1` (racemic) [Example 75] stands 931 nM; under `COC(=O)Nc1ccc(-c2c[nH]c(C(Cc3ccc(F)cc3)c3ccc(-c4c(C#N)ccc(Cl)c4F)c[n+]3[O-])n2)cc1` (racemic) [Example 14], 59.9 nM; under `O=C(O)c1cccc(-c2cnc(C(CC3CC3)c3ccc(-c4cc(Cl)ccc4-n4cnnn4)c[n+]3[O-])[nH]2)c1F` (single isomer, unassigned) [Example 52, 3-[2-(1-{5-[5-chloro-2-(1H-tetrazol-1-yl)phenyl]-1-oxidopyridin-2-yl}-2-cyclopropylethyl)-1H-imidazol-5-yl]-2-fluorobenzoic acid], 204 nM. As for `COC(=O)Nc1ccc(-c2c[nH]c(C(Cc3ccccc3)c3ccc(-c4c(F)ccc(Cl)c4F)c[n+]3[O-])n2)cc1` (single isomer, unassigned) [Example 6], the half-inhibitory concentration (IC50) amounted to 289 nM. On to `N#Cc1ccc(-c2c[nH]c(C(Cc3ccc(F)cc3)c3ccc(-c4cc(Cl)ccc4-n4cnnn4)c[n+]3[O-])n2)cc1` (single isomer, unassigned) [Example 19], for which the IC50 was found to be 311 nM.

Usually IC50 stands for the midpoint of a concentration-inhibition curve.
